Results taken from US20250195681A1, “ANTI-GPC3 ANTIBODY DRUG CONJUGATE AND USE THEREOF” (DUALITY BIOLOGICS (SUZHOU) CO., LTD., priority 2022, published 2025).

How the values were obtained:
NCI-N87 = test: In vitro proliferation inhibition of small molecule payloads, CTG, 6 days (3.3); assay type: cell-based; conditions: Homo sapiens, NCI-N87, 144 h, read-out: Abs-IC50 NCI-N87
Method: (§1) To detect the in vitro proliferation inhibitory activity of the drug compounds on NCI-N87 and Colo205 tumor cells. Cells were treated with different concentrations of the compounds in vitro, and after 6 days of culture, cell proliferation was detected using the CTG (CellTiter-Glo® Luminescent Cell Viability Assay, Promega, Cat. No.: G7558) reagent. The IC50 value was used to assess the in vitro activity of the compounds.
(§2) 1. Cell culture: NCI-N87 and Colo205 cells were cultured in RPMI-1640 medium containing 10% FBS.
(§3) 2. Cell preparation: NCI-N87 and Colo205 cells in the logarithmic growth phase were washed once with PBS, then digested with 2-3 mL of trypsin for 2-3 minutes. Once the cells were fully digested, 10-15 mL of cell culture medium was added to wash off the digested cells. The mixture was then centrifuged at 1000 rpm for 5 minutes, then the supernatant was discarded, and the cells were resuspended in 10-20 mL of cell culture medium to prepare a single-cell suspension.
(§4) 3. Cell plating: The single-cell suspension of NCI-N87 and Colo205 was mixed well, and the density of viable cells was adjusted to 6×10^4 cells/mL using a cell culture medium. The density-adjusted cell suspension was mixed well and added to a 96-well cell culture plate at 50 μL per well. The culture plate was incubated in an incubator for 18 hours (37° C., 5% CO2).
(§5) 4. Compound preparation: The compounds were dissolved in DMSO to prepare stock solutions with an initial concentration of 10 mM.
(§6) Eight concentrations of the small molecule compounds were prepared: 300, 100, 30, 10, 3, 1, 0.3, and 0.1 nM.
(§7) 5. Sample addition operation: The prepared samples at different concentrations were added to a culture plate, with two replicate wells for each sample. The culture plate was incubated in an incubator for 6 days (37° C., 5% CO2).
6. […]
(§8) 7. Plate reading operation: The 96-well cell culture plate was placed in a microplate reader, and the chemiluminescence was measured with the microplate reader.
(§9) Data analysis: The data were processed and analyzed using Microsoft Excel and GraphPad Prism 5.

Colo205 = test: as above; assay type: cell-based; conditions: Homo sapiens, COLO 205, 144 h, read-out: Abs-IC50 Colo205
Method: as §1, §2, §3, §4, §5, §6, §7
6. […]
as §8, §9

JIMT-1 = test: In vitro proliferation inhibition of small molecule payloads, CTG, 6 days (3.2); assay type: cell-based; conditions: Homo sapiens, JIMT-1, 144 h, read-out: JIMT-1 IC50
Method: as §1, with “NCI-N87, JIMT-1,” for “NCI-N87”, “MBA-MB-231” for “Colo205”
1. Cell culture: NCI-N87, JIMT-1, and MBA-MB-231 cells were cultured in RPMI-1640 medium containing 10% FBS.
2. Cell preparation: NCI-N87, JIMT-1, and MBA-MB-231 cells in the logarithmic growth phase were washed once with PBS, then digested with 2-3 mL of trypsin for 2-3 minutes. […]
as §8, §9
8. Data analysis: The cell viability was calculated using the formula: Vsample/Vvehicle control x 100% where Vsample represents the reading from the drug-treated group, and Vvehicle control represents the average value of the vehicle control group. GraphPad Prism software was used to plot the S-shaped dose-viability curve using a nonlinear regression model, and the IC50 values were calculated.

advanced liver cancer [1] = conditions: patients with high GPC3 expression; cited from earlier work
advanced liver cancer [2] = conditions: Phase II; cited from earlier work

For `CC[C@@]1(O)C(=O)OCc2c1cc1n(c2=O)Cc2c-1nc1cc(F)c(C)c3c1c2[C@@H](NC(=O)CCO)CC3` [Preparation Example 8], the IC50 (NCI-N87) was 15.1 nM.
For `CC[C@@]1(O)C(=O)OCc2c1cc1n(c2=O)Cc2c-1nc1cc(F)c(C)c3c1c2[C@@H](NC(=O)CO)CC3` [Preparation Example 9, DXd, reference compound], the IC50 (Colo205) was 294 nM and the IC50 (NCI-N87) was 13.9 nM.
With `CC[C@@]1(O)C(=O)OCc2c1cc1n(c2=O)Cc2c-1nc1cc(F)c(C)c3c1c2[C@@H](NC(=O)CCN)CC3` [Reference Example 1] the IC50 (JIMT-1) was 36.2 nM.
In the case of Codrituzumab, the “disease progression (in words)” value (advanced liver cancer [1]) is given as “showed a trend of delayed disease progression” and the “survival (in words)” value (advanced liver cancer [2]) is given as “did not demonstrate a statistically significant improvement in survival”.
